Test results published in US20250206732A1, “COMPOUNDS AND METHODS FOR THE TARGETED DEGRADATION OF KRAS” (Arvinas Operations, Inc., priority 2022, published 2025).

Molecular target: T1, AsPC-1 HiBiT-KRASG12D (Homo sapiens, UniProt P01116, G12D)
T1 construct: insert the HiBiT tag onto the N-terminus of one or more of the endogenous KRAS alleles; endogenous in cells; host or cells: AsPC-1 (ATCC CRL-1682), CRISPR-Cas9 knock-in clone, one tagged allele
Test: HiBiT degradation assay (G12D), AsPC-1 HiBiT-KRASG12D cells
Assay type: cell-based
Conditions: 24 hours treatment; for Dmax: ASPC1, AsPC-1 HiBiT-KRASG12D cells, maximum degradation observed; for DC50: AsPC-1 HiBiT-KRASG12D cells, HiBiT luminescence
Method in brief: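 In this degradation format, an engineered AsPC-1 clone with HiBiT fused to the KRAS N-terminus is exposed to compounds for 24 hours, after which remaining tagged protein is quantified by lytic HiBiT luminescence.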

T1 sequence (P01116 1-188 isoform P01116-2 G12D): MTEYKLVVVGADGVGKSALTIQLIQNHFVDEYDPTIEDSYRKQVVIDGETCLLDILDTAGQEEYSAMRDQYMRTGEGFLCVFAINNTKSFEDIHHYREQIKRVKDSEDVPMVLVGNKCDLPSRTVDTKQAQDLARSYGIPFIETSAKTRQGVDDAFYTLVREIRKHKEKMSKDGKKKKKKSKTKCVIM

Row | Compound | Dmax | DC50
1 | CCc1cccc2cc(O)cc(-c3ncc4c(N5CC6CCC(C5)N6)nc(OCCN5CCC[C@H](CN6CCN(c7cc([C@H](C(=O)N8C[C@H](O)C[C@H]8C(=O)N[C@@H](C)c8ccc(-c9scnc9C)cc8)C(C)C)on7)CC6)C5)nc4c3F)c12 [Compound 243, (2S,4R)-1-[(2R)-2-[3-[4-[(3R)-1-[2-[[4-(3,8-diazabicyclo[3.2.1]octan-3-yl)-7-(8-ethyl-3-hydroxy-1-naphthyl)-8-fluoro-pyrido[4,3-d]pyrimidin-2-yl]oxyethyl]-3-piperidyl]methyl]piperazin-1-yl]isoxazol-5-yl]-3-methyl-butanoyl]-4-hydroxy-N-[(1S)-1-[4-(4-methylthiazol-5-yl)phenyl]ethyl]pyrrolidine-2-carboxamide] | 80 to 100% | < 600 nM
2 | CCc1cccc2cc(O)cc(-c3ncc4c(N5CC6CCC(C5)N6)nc(OCCN5CCC(CN6CC(Oc7cc([C@H](C(=O)N8C[C@H](O)C[C@H]8C(=O)N[C@@H](C)c8ccc(-c9scnc9C)cc8)C(C)C)on7)C6)CC5)nc4c3F)c12 [Compound 244, (2S,4R)-1-[(2R)-2-[3-({1-[(1-{2-[(4-{3,8-diazabicyclo[3.2.1]octan-3-yl}-7-(8-ethyl-3-hydroxynaphthalen-1-yl)-8-fluoropyrido[4,3-d]pyrimidin-2-yl)oxy]ethyl}piperidin-4-yl)methyl]azetidin-3-yl}oxy)-1,2-oxazol-5-yl]-3-methylbutanoyl]-4-hydroxy-N-[(1S)-1-[4-(4-methyl-1,3-thiazol-5-yl)phenyl]ethyl] pyrrolidine-2-carboxamide] | 80 to 100% | < 600 nM
3 | CCc1cccc2cc(O)cc(-c3ncc4c(N5CC6CCC(C5)N6)nc(OCCN5CCC(CN6CC(Oc7cc([C@@H](C(=O)N8C[C@H](O)C[C@H]8C(=O)N[C@@H](C)c8ccc(-c9scnc9C)cc8)C(C)C)on7)C6)CC5)nc4c3F)c12 [Compound 245] | – | > 3000 nM
4 | CCc1cccc2cc(O)cc(-c3ncc4c(N5CC6CCC(C5)N6C=O)nc(OCCN5CCC(CC6CN(c7cc([C@H](C(=O)N8C[C@H](O)C[C@H]8C(=O)N[C@@H](C)c8ccc(-c9scnc9C)cc8)C(C)C)on7)C6)CC5)nc4c3F)c12 [Compound 246] | – | > 3000 nM
5 | CCc1cccc2cc(O)cc(-c3ncc4c(N5CC6CCC(C5)N6C=O)nc(OCCN5CCC(CC6CN(c7cc([C@@H](C(=O)N8C[C@H](O)C[C@H]8C(=O)N[C@@H](C)c8ccc(-c9scnc9C)cc8)C(C)C)on7)C6)CC5)nc4c3F)c12 [Compound 247] | – | > 3000 nM
6 | CCc1cccc2cc(O)cc(-c3ncc4c(N5CC6CCC(C5)N6)nc(OCCN5CCC(CCOc6cc([C@@H](C(=O)N7C[C@H](O)C[C@H]7C(=O)N[C@@H](C)c7ccc(-c8scnc8C)cc7)C(C)C)on6)CC5)nc4c3F)c12 [Compound 248] | – | > 3000 nM
7 | CCc1cccc2cc(O)cc(-c3ncc4c(N5CC6CCC(C5)N6)nc(OCCN5CCC(CCOc6cc([C@H](C(=O)N7C[C@H](O)C[C@H]7C(=O)N[C@@H](C)c7ccc(-c8scnc8C)cc7)C(C)C)on6)CC5)nc4c3F)c12 [Compound 249] | 80 to 100% | < 600 nM
8 | CCc1cccc2cc(O)cc(-c3ncc4c(N5C[C@H]6CC[C@@H](C5)N6)nc(OC[C@@H]5CC[C@@H](COC(=O)N6CCC(Oc7cc([C@@H](C(=O)N8C[C@H](O)C[C@H]8C(=O)N[C@@H](C)c8ccc(-c9scnc9C)cc8)C(C)C)on7)CC6)N5C)nc4c3F)c12 [Compound 255, ((2S,5S)-5-(((4-((1R,5S)-3,8-diazabicyclo[3.2.1]octan-3-yl)-7-(8-ethyl-3-hydroxynaphthalen-1-yl)-8-fluoropyrido[4,3-d]pyrimidin-2-yl)oxy)methyl)-1-methylpyrrolidin-2-yl)methyl 4-((5-((S)-1-((2S,4R)-4-hydroxy-2-(((S)-1-(4-(4-methylthiazol-5-yl)phenyl)ethyl)carbamoyl)pyrrolidin-1-yl)-3-methyl-1-oxobutan-2-yl)isoxazol-3-yl)oxy)piperidine-1-carboxylate] | 20 to 60% | 600 to 1000 nM
9 | CCc1cccc2cc(O)cc(-c3ncc4c(N5C[C@H]6CC[C@@H](C5)N6)nc(OC[C@@H]5CC[C@@H](COC(=O)N6CC7(C6)CN(c6cc([C@H](C(=O)N8C[C@H](O)C[C@H]8C(=O)N[C@@H](C)c8ccc(-c9scnc9C)cc8)C(C)C)on6)C7)N5C)nc4c3F)c12 [Compound 256, ((2S,5S)-5-(((4-((1R,5S)-3,8-diazabicyclo[3.2.1]octan-3-yl)-7-(8-ethyl-3-hydroxynaphthalen-1-yl)-8-fluoropyrido[4,3-d]pyrimidin-2-yl)oxy)methyl)-1-methylpyrrolidin-2-yl)methyl 6-(5-((R)-1-((2S,4R)-4-hydroxy-2-(((S)-1-(4-(4-methylthiazol-5-yl)phenyl)ethyl)carbamoyl)pyrrolidin-1-yl)-3-methyl-1-oxobutan-2-yl)isoxazol-3-yl)-2,6-diazaspiro[3.3]heptane-2-carboxylate] | 80 to 100% | < 600 nM
10 | CCc1cccc2cc(O)cc(-c3ncc4c(N5CC6CCC(C5)N6)nc(OC[C@@H]5CC[C@H](COC(=O)N6CCN(c7cc([C@H](C(=O)N8C[C@H](O)C[C@H]8C(=O)N[C@@H](C)c8ccc(-c9scnc9C)cc8)C(C)C)on7)CC6)N5C)nc4c3F)c12 [Compound 259, [(2R,5S)-5-{[(4-{3,8-diazabicyclo[3.2.1]octan-3-yl}-7-(8-ethyl-3-hydroxynaphthalen-1-yl)-8-fluoropyrido[4,3-d]pyrimidin-2-yl)oxy]methyl}-1-methylpyrrolidin-2-yl]methyl 4-{5-[(2R)-1-[(2S,4R)-4-hydroxy-2-{[(1S)-1-[4-(4-methyl-1,3-thiazol-5-yl)phenyl]ethyl]carbamoyl}pyrrolidin-1-yl]-3-methyl-1-oxobutan-2-yl]-1,2-oxazol-3-yl}piperazine-1-carboxylate] | 80 to 100% | < 600 nM
11 | CCc1cccc2cc(O)cc(-c3ncc4c(N5CC6CCC(C5)N6)nc(OCCN5CCC(CC6(F)CCN(CC(=O)N[C@H](C(=O)N7C[C@H](O)C[C@H]7C(=O)N[C@@H](C)c7ccc(-c8scnc8C)cc7)C(C)(C)C)CC6)CC5)nc4c3F)c12 [Compound 260, (2S,4R)-1-[(2S)-2-(2-{4-[(1-{2-[(4-{3,8-diazabicyclo[3.2.1]octan-3-yl}-7-(8-ethyl-3-hydroxynaphthalen-1-yl)-8-fluoropyrido[4,3-d]pyrimidin-2-yl)oxy]ethyl}piperidin-4-yl)methyl]-4-fluoropiperidin-1-yl}acetamido)-3,3-dimethylbutanoyl]-4-hydroxy-N-[(1S)-1-[4-(4-methyl-1,3-thiazol-5-yl)phenyl]ethyl]pyrrolidine-2-carboxamide] | 80 to 100% | < 600 nM
12 | CCc1cccc2cc(O)cc(-c3ncc4c(N5CC6CCC(C5)N6)nc(OC[C@@H]5CC[C@@H](COC(=O)N6CCN(c7cc([C@H](C(=O)N8C[C@H](O)C[C@H]8C(=O)N[C@@H](C)c8ccc(-c9scnc9C)cc8)C(C)C)on7)C[C@@H]6C)N5C)nc4c3F)c12 [Compound 261, [(2S,5S)-5-{[(4-{3,8-diazabicyclo[3.2.1]octan-3-yl}-7-(8-ethyl-3-hydroxynaphthalen-1-yl)-8-fluoropyrido[4,3-d]pyrimidin-2-yl)oxy]methyl}-1-methylpyrrolidin-2-yl]methyl (2S)-4-{5-[(2R)-1-[(2S,4R)-4-hydroxy-2-{[(1S)-1-[4-(4-methyl-1,3-thiazol-5-yl)phenyl]ethyl]carbamoyl}pyrrolidin-1-yl]-3-methyl-1-oxobutan-2-yl]-1,2-oxazol-3-yl}-2-methylpiperazine-1-carboxylate] | 80 to 100% | < 600 nM
13 | CCc1cccc2cc(O)cc(-c3ncc4c(N5CC6CCC(C5)N6)nc(OCCN5CCC(F)(CN6CCN(c7cc([C@H](C(=O)N8C[C@H](O)C[C@H]8C(=O)N[C@@H](C)c8ccc(-c9scnc9C)cc8)C(C)C)on7)CC6)CC5)nc4c3F)c12 [Compound 262] | 80 to 100% | < 600 nM
14 | CCc1cccc2cc(O)cc(-c3ncc4c(N5CC6CCC(C5)N6)nc(OCCN5CCC(CC6(F)CN(CC(=O)N[C@H](C(=O)N7C[C@H](O)C[C@H]7C(=O)N[C@@H](C)c7ccc(-c8scnc8C)cc7)C(C)(C)C)C6)CC5)nc4c3F)c12 [Compound 263, (2S,4R)-1-[(2S)-2-(2-{3-[(1-{2-[(4-{3,8-diazabicyclo[3.2.1]octan-3-yl}-7-(8-ethyl-3-hydroxynaphthalen-1-yl)-8-fluoropyrido[4,3-d]pyrimidin-2-yl)oxy]ethyl}piperidin-4-yl)methyl]-3-fluoroazetidin-1-yl}acetamido)-3,3-dimethylbutanoyl]-4-hydroxy-N-[(1S)-1-[4-(4-methyl-1,3-thiazol-5-yl)phenyl]ethyl]pyrrolidine-2-carboxamide] | 80 to 100% | < 600 nM
15 | CCc1cccc2cc(O)cc(-c3ncc4c(N5CCCCCC5)nc(OC[C@@H]5CC[C@@H](COC(=O)N6CCN(c7cc([C@H](C(=O)N8C[C@H](O)C[C@H]8C(=O)N[C@@H](C)c8ccc(-c9scnc9C)cc8)C(C)C)on7)CC6)N5C)nc4c3F)c12 [Compound 272, [(2S,5S)-5-[[4-(azepan-1-yl)-7-(8-ethyl-3-hydroxy-1-naphthyl)-8-fluoro-pyrido[4,3-d]pyrimidin-2-yl]oxymethyl]-1-methyl-pyrrolidin-2-yl]methyl 4-[5-[(1R)-1-[(2S,4R)-4-hydroxy-2-[[(1S)-1-[4-(4-methylthiazol-5-yl)phenyl]ethyl]carbamoyl]pyrrolidine-1-carbonyl]-2-methyl-propyl]isoxazol-3-yl]piperazine-1-carboxylate] | 60 to 80% | < 600 nM
